Consider two compounds from patent US10350228B2, “Treatment of sickle cell disease and inflammatory conditions” (Seattle Genetics, Inc., priority 2012, dated 2019).

Test [1] relates to antibody core fucosylation. Briefly: Inhibition of antibody core fucosylation by fucose analogs. Format: cell-based. The text has this:
Methods of determining whether a fucose analog is capable of having an effect on antibody core fucosylation is provided in WO 2012/019165.

The subject of test [2] is P-selectin. Briefly: P-selectin binding to neutrophils from treated mice (flow cytometry). It counts as in vivo, Balb/c mice. Particulars: 10 or 100 mM in drinking water, day 21. The protocol:
(§1) Female Balb/c mice were given oral 2-fluorofucose in their drinking water (10 mM, 100 mM, n=3/group) or left untreated. Mice remained on the 2-fluorofucose-containing water through day 21 when blood was collected. Pre-dose bleeds were collected for baseline comparison. Total white cells/μL blood were determined by hemacytometer using Turk's solution (0.01% gentian violet in 3% acetic acid) to exclude red blood cells. RBCs were eliminated from the remainder of the blood by osmotic lysis for flow cytometric analysis. Cells were incubated with anti-Gr-1-FITC antibodies (BD Biosciences) to identify neutrophils, and a recombinant P-selectin-human Fc fusion protein (R&D Systems) or a recombinant E-selectin-human Fc fusion protein. Cells were washed and then incubated with a PE-labeled goat anti-human IgG-Fc secondary antibody (Jackson Immunoresearch) to detect bound P-selectin or E-selectin. Samples were collected on a FACSCalibur flow cytometer and analyzed using CellQuest software. The percentage of Gr-1+ cells was determined and absolute number of neutrophils was calculated using the total white cell number from the hemacytometer count. In addition, flow samples were gated for Gr-1+ cells to assess P-selectin or E-selectin binding to neutrophils by histogram analysis. The geometric mean of the P-selectin or E-selectin fluorescent signal was determined from the histogram. […]
(A flow cytometer gives signals particle by particle.)

The test system of test [3] is E-selectin. Briefly: Adhesion of LS174T cells to immobilized E-selectin. Format: cell-based. Conditions: cells cultured with 100 μM for 10 days; adhesion at 4° C. The protocol: LS174T cells (ATCC) were cultured in MEM-Eagle with 10% FBS with or without 100 μM 2-fluorofucose for 10 days. For adhesion to purified E-selectin, non-tissue culture treated 96-well clear bottom black culture plates were coated with E-selectin-Fc chimera (5 μg/mL, PBS) and controls with 3% BSA/PBS, 2 hr at 37° C., then overnight at 4° C. Wells were washed two times with PBS and blocked with 3% BSA/PBS (2 hr, room temperature). LS174T cells were harvested and washed with PBS 2 times, labeled with 5 μM Calcein-AM in serum-free medium (15 min), and washed with DBPS two times. Cells in DPBS (100 μL) of were added to each well and the plate was kept at 4° C. for 2 hr. Plates were read at 480 nm excitation and 520 nm emission (total cell reading) and then washed with DPBS four times, followed by fluorescent analysis.

Test [4] has as its system NF-κB phospho-p65. Briefly: Western blot of NF-κB phospho-p65 in liver nuclear extracts of sickle cell mice. It counts as in vivo, NY1DD sickle cell mice. As to the method:
(§2) NY1DD sickle cell mice were given plain water or 20 or 100 mM 2-fluorofucose in their drinking water ad libitum for 7 days. The treatment and control group had four mice per treatment group. On day 7, the mice were sacrificed with CO2. An EDTA blood sample was collected from the heart and the liver was removed and frozen in liquid nitrogen. Total white blood cell counts and differentials were performed by manual counting using a hemocytometer and Wright-stained blood smears, respectively. Nuclear extracts were prepared from nuclei isolated from liver homogenates. Western blots of the nuclear extracts were immunostained with antibodies to NF-κB phospho-p65 a marker of NF-κB activation.
(In general: A western blot detects proteins with antibodies after separation by electrophoresis.)

Test [5] deals with white blood cells. Briefly: White blood cell counts in sickle cell mice. Conditions: 7 days. Format: in vivo, NY1DD sickle cell mice. The protocol:
as §2

Test [6] relates to E-selectin. Briefly: E-selectin binding to neutrophils from treated mice (flow cytometry). Conditions: 10 or 100 mM in drinking water, day 21. Format: in vivo, Balb/c mice. As to the method:
as §1

Test [7] has as its system blood neutrophils. The test can be described thus: Blood neutrophil counts in treated mice. It counts as in vivo, Balb/c mice. Particulars: 10 or 100 mM in drinking water, day 21. The protocol:
as §1

Test [8] has as its system activated HUVEC cells. Briefly: Adhesion of LS174T cells to TNFα-activated HUVEC cells. Format: cell-based. Particulars: cells cultured with 100 μM for 10 days; adhesion at 4° C. As to the method: For adhesion to activated HUVEC cells, non-tissue culture treated 96-well clear bottom black culture plates were coated with attachment factor (100 μL/well), 30 min at room temperature. Wells were aspirated and HUVECs were added to half of the wells (40,000 cells/200 μL cell culture medium) while 3% BSA/PBS was added to the remaining control wells (100 μL) and the plate was incubated overnight at 37° C., 5% CO2. The confluent HUVEC cells were then treated with TNFα (20 ng/mL in PBS) for 4 hr at 37° C. Meanwhile tumor cells were labeled with Calcein-AM as described. The wells of the 96-well plate were all aspirated and seeded with 2-fluorofucose-treated or untreated labeled LS174T cells (500000 cells/well) and the plate was kept at 4° C. for 2 hr. Plates were read at 480 nm excitation and 520 nm emission (total cell reading) and then washed with DPBS four times, followed by fluorescent analysis. (see FIG. 4; The numeral 1 refers to 2-fluorofucose).

Test [9] concerns NY1DD sickle cell mice. Briefly: Hemoglobin-induced vascular stasis in dorsal skin fold chamber venules. Format: in vivo. Conditions: 20 mM in drinking water 7 days. As to the method:
NY1DD sickle cell mice were given plain water or 20 or 100 mM 2-fluorofucose in their drinking water ad libitum for 7 days. On day 4, dorsal skin fold chambers were implanted onto the mice (n=4). On day 7, flowing venules in the dorsal skin-fold chamber window were selected and mapped using intravital microscopy. Thereafter, the mice were infused via the tail vein with human stroma-free hemoglobin (0.32 μmols heme/kg), a known inducer of vascular stasis in SCD mice. At 1 and 4 hours after infusion the same venules were re-examined and the percentage of vessels that had become static (no flow) was recorded. A control group of NY1DD mice (n=3) with implanted dorsal skin-fold chambers was given water to drink and injected intraperitoneally with hemin (40 μmols/kg×3 days) a known inhibitor of vascular stasis

“Also recorded” adds a separate entry of the source.

`C[C@H](O)[C@@H](O)[C@@H](O)[C@H](F)C=O` [2-fluorofucose, 2-deoxy-2-fluorofucose]: the inhibition (in general, the drop in the measured response relative to a control, in per cent) at 50 µM in [1] (Table 2, 50 μM analog, read-out: Inhibition at 50 μM) is > 80%. Moreover, the inhibition at 1000 µM in test [1] (Table 2, 1 mM analog) is > 80%. For the same compound, the “P-selectin binding to neutrophils” value in [2] is “dimished and loss”. In test [3], the “adhesion of LS174T cells to immobilized E-selectin” value is “decreased adhesion; also recorded: diminished adhesion to selectins”. The “Nuclear NF-κB phospho-p65 in liver” value in [4] (20 mM in drinking water, 7 days) is recorded as “partially diminished”; in test [4] (100 mM in drinking water, 7 days) it was “markedly decreased”. The “White blood cells counts (mean+SD)” value in test [5] (20 mM in drinking water) is recorded as 22.1+5.2 K/μL; in test [5] (100 mM in drinking water), 34.2+7.2 K/μL. Further, the “E-selectin binding to neutrophils” value in [6] was “loss”. Further, the blood neutrophil counts entry in [7] is on record as “significantly increased”. Further, the “adhesion of LS174T cells to HUVEC cells activated with TNFα” value in [8] is on record as “decreased adhesion”. Moreover, the “percent static venules (vascular stasis)” value in test [9] (1 hour after hemoglobin infusion) and in test [9] (4 hours after hemoglobin infusion) was “partially inhibited stasis; also recorded: partially diminished” throughout.

Regarding hemin [heme, reference compound], in [4] (heme-treated mice), the “Nuclear NF-κB phospho-p65 in liver” value is “markedly decreased”.
